Results published in ChEMBL document CHEMBL2429712, “Synthesis and cytotoxicity of (3)-3-acetyloxy-5(6)-androsten-7-one oxime and 3,5(6)-androstadien-7-one oxime” (Med Chem Res, 2013).

How the values were obtained:
Assay type in all cases: functional, cell-based
[1] = system: MKN-28; assay: Cytotoxicity against human MKN28 cells after 44 hrs by SRB assay; settings: MKN-28, 44 h
[2] = system: KB; assay: Cytotoxicity against human KB cells after 44 hrs by SRB assay
[3] = system: MCF7; assay: Cytotoxicity against human MCF7 cells after 44 hrs by SRB assay; settings: MCF7, 44 h
[4] = system: HeLa; assay: Cytotoxicity against human HeLa cells after 44 hrs by SRB assay

SMILES	IC50 [1]	IC50 [2]	IC50 [3]	IC50 [4]
CC(=O)O[C@H]1CC[C@@]2(C)C(=C/C(=N\O)[C@H]3[C@@H]4CCC[C@@]4(C)CC[C@@H]32)C1	18.1 µM	26 µM	10.2 µM	12.8 µM
C[C@@]12CCC[C@H]1[C@@H]1/C(=N\O)C=C3C=CCC[C@]3(C)[C@H]1CC2	36.1 µM	28.5 µM	19.8 µM	22.2 µM
COc1cccc2c1C(=O)c1c(O)c3c(c(O)c1C2=O)C[C@@](O)(C(=O)CO)C[C@@H]3O[C@H]1C[C@H](N)[C@H](O)[C@H](C)O1 [DOXORUBICIN]	0.22 µM	0.028 µM	–	–
CC(=O)O[C@H]1CC[C@@]2(C)C(=CC(=O)[C@H]3[C@@H]4CCC[C@@]4(C)CC[C@@H]32)C1	48.5 µM	62 µM	39.5 µM	34 µM
C[C@@]12CCC[C@H]1[C@@H]1C(=O)C=C3C=CCC[C@]3(C)[C@H]1CC2	64.3 µM	> 80 µM	52.2 µM	62.4 µM
